Experiment [1] addresses T1, ClpB (Escherichia coli, UniProt P63284).
T1 construct: ClpB wild type
Description: biochemical. Details: competition titration of nucleotide against preformed ClpB-mantADP complex, mantADP fluorescence. Particulars: competition with 1.25 uM mantADP; read-out: Knuc (WT). The method, then:
with F: observed fluorescence; F0: starting fluorescence without nucleotide; F1: maximum fluorescence observed; [ATP]: concentration of ADP/ATPγS (μM); Ki,app: apparent dissociation constant. with Ki,app: apparent dissociation constant; Ki: dissociation constant; [mantADP]: mantADP concentration (μM); Kd (mantADP): dissociation constant of mantADP. […] ClpB WT and mutants were incubated for 5 min at 25°C in presence of 2 mM ATPγS. Crosslinking reactions were started by addition of glutaraldehyde and proceeded for 2 and 10 min. Crosslinking products were separated by SDS-PAGE, followed by Sypro-Ruby staining. Supplementary Figure 2 Nucleotide binding properties of ClpB wild type. (A)1,5 µM mantADP was incubated with increasing concentrations of ClpB wild type and derivatives and the increase in mantADP fluorescence was determined. The fluorescence intensity of mantADP in absence of ClpB proteins was set at 1. Determined dissociation constants (Kd) are given. (B) Increasing nucleotide concentrations (ADP, ATPγS) were added to a preformed ClpB-mantADP complex (1,25 µM MANTADP, 1,25 µM ClpB WT or derivatives). Determined dissociation constants (Kd) are given.

The target in experiment [2] is T1, ClpB. Description: NADH-coupled ATPase assay with purified ClpB, without and with casein. Format: biochemical.
In experiment [3] the target is ClpB (Escherichia coli, UniProt P63284, K476C). The experiment can be described thus: equilibrium fluorescence titration of mantADP with ClpB. Format: binding.
Sequence of ClpB (Escherichia coli, UniProt P63284, K476C) (P63284 whole entry K476C, looked up): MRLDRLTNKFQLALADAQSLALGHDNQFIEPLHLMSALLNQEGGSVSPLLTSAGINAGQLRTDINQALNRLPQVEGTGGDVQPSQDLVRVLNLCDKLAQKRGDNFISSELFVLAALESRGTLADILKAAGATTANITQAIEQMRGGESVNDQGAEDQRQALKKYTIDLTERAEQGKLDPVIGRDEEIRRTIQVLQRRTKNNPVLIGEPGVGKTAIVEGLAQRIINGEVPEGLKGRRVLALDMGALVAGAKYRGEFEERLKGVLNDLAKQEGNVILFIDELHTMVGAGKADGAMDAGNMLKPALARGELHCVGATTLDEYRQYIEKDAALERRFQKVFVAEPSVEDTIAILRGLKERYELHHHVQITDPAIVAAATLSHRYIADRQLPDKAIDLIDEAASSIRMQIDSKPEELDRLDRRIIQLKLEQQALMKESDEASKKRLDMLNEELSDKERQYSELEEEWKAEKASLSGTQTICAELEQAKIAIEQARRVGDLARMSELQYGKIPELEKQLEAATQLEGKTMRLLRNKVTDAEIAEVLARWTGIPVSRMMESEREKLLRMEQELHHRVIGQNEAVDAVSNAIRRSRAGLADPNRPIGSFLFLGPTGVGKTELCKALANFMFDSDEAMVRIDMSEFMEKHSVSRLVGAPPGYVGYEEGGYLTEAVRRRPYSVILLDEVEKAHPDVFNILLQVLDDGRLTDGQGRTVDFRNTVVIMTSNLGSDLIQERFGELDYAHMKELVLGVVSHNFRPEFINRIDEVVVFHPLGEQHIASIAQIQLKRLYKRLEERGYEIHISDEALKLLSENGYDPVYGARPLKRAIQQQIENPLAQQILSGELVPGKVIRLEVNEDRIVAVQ
Experiment [4] addresses ClpB (Escherichia coli, UniProt P63284, A328V). Described as above. Format: binding.
Experiment [5] deals with T1, ClpB. The description is as above. Format: binding.

T1 sequence (P63284 whole entry): as the sequence (P63284 whole entry K476C, looked up) above, with C476K counted along it
Sequence of ClpB (Escherichia coli, UniProt P63284, A328V) (P63284 whole entry A328V): as the sequence (P63284 whole entry K476C, looked up) above, with A328V, C476K counted along it

As for `Nc1ncnc2c1ncn2[C@@H]1O[C@H](COP(=O)(O)OP(=O)(O)O)[C@@H](O)[C@H]1O` [ADP], the Kd at ClpB [1] turned out to be 7600 nM.

With `Nc1ncnc2c1ncn2[C@@H]1O[C@H](COP(=O)(O)OP(=O)(O)OP(=O)(O)O)[C@@H](O)[C@H]1O` [ATP], the “NADH-coupled ATPase assay with purified ClpB, without and with casein” value at ClpB [2] was “ATPase activities of ClpB wild type (WT) and indicated ClpB mutants were determined in absence (−) and presence (+)”.

On to `Nc1ncnc2c1ncn2[C@@H]1O[C@H](CO[P@](=O)(O)O[P@](=O)(O)O[P@@](=O)(O)S)[C@@H](O)[C@H]1O` [ATPγS], for which the Kd on ClpB [1] is 8100 nM.

Take mantADP: the Kd at ClpB [3] turned out to be 250 nM; at ClpB [4], 510 nM; at ClpB [5], 230 nM.

(Values after PMC5319980, “Mutant Analysis Reveals Allosteric Regulation of ClpB Disaggregase” (Frontiers in Molecular Biosciences, 2017).)
